Test results from ChEMBL document CHEMBL4699460, “Integrating DNA-encoded chemical libraries with virtual combinatorial library screening: Optimizing a PARP10 inhibitor” (Bioorg Med Chem Lett, 2020).

Key:
[1] = biological target: T1, Poly [ADP-ribose] polymerase tankyrase-1 (Homo sapiens) (UniProt O95271); assay: (§1) Inhibition of N-terminal GST-tagged human TNKS1 (1001 to 1327 residues) expressed in baculovirus-infected Sf9 cells assessed as reduction in NAD+-dependent ADP ribosylation using histone as substrate at 10 uM incubated for 1 hr in presence of biotinylated NAD+ and activated DNA by chemiluminescence based microplate reader assay relative to control
T1 sequence (whole entry): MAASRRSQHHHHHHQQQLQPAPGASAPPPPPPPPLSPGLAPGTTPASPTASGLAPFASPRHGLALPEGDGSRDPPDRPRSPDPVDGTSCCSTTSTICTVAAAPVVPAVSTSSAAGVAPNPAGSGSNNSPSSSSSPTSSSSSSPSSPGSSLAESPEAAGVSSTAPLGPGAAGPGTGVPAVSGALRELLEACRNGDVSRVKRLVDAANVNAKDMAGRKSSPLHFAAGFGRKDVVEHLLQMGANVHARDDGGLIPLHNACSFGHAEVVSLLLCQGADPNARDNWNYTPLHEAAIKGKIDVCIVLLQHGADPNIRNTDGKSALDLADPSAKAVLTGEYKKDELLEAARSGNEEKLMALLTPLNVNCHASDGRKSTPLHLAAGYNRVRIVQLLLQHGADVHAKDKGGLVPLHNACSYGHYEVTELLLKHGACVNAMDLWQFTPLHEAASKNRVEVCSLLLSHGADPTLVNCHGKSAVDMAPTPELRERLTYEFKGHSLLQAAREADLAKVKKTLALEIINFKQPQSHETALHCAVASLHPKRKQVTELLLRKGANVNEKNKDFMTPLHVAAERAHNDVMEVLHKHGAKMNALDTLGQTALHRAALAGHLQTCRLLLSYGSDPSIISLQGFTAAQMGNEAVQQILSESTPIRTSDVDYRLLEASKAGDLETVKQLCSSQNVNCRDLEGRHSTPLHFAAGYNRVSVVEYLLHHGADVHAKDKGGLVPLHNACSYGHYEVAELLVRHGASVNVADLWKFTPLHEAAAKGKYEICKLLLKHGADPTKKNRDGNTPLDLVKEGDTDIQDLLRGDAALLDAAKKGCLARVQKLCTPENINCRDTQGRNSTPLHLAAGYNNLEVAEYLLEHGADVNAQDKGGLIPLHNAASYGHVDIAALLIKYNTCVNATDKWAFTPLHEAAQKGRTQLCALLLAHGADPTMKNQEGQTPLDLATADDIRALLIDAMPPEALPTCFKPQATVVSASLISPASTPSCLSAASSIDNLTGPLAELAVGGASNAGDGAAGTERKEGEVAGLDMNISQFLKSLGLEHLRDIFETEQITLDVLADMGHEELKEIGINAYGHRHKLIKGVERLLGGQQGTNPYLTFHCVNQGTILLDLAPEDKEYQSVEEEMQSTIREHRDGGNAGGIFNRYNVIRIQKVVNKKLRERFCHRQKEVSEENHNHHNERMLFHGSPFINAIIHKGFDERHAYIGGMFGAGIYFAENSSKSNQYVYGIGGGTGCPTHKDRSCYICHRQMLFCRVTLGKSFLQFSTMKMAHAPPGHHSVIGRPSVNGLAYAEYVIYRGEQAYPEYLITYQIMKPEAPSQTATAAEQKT

[2] = biological target: T2, Poly [ADP-ribose] polymerase tankyrase-2 (Homo sapiens) (UniProt Q9H2K2); assay: Inhibition of TNKS2 (unknown origin) at 10 uM relative to control
T2 sequence (whole entry): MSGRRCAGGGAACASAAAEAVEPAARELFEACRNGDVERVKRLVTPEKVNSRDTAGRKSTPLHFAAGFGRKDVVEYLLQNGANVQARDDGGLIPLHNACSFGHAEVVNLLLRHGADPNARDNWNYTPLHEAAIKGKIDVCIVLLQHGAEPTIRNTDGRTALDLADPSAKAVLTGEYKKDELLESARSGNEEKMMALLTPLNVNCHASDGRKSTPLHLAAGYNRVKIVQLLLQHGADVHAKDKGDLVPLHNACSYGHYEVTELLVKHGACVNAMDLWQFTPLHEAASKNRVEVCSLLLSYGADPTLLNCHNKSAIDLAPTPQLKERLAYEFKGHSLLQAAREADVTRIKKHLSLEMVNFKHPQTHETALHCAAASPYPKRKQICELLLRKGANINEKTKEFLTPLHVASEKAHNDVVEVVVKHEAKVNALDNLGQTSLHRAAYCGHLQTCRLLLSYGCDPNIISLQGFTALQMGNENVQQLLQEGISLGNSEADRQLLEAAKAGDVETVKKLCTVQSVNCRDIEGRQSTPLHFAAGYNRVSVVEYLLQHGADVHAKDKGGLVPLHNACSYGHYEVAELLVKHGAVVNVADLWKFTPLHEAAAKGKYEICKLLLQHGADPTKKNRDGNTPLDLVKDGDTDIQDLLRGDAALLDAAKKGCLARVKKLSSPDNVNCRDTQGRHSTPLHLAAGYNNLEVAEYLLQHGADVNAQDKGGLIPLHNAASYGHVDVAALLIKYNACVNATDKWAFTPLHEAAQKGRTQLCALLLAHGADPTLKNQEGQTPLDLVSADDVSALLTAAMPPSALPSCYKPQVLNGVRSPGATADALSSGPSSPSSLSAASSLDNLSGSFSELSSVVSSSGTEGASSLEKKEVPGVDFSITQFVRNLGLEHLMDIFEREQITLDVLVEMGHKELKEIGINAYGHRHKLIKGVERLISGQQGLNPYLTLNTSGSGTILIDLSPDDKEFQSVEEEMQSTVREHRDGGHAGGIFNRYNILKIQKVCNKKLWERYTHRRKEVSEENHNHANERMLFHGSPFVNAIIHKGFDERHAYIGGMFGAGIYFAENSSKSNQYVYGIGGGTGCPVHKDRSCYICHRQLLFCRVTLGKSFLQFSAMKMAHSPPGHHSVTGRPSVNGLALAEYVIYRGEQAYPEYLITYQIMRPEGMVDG

[3] = biological target: Poly [ADP-ribose] polymerase 1 (Homo sapiens) (UniProt P09874); assay: as §1, with “GST tagged” for “GST-tagged”, “PARP1 (2” for “TNKS1 (1001”, “1041” for “1327”, “baculovirus infected” for “baculovirus-infected”
Sequence of Poly [ADP-ribose] polymerase 1 (Homo sapiens) (P09874 whole entry): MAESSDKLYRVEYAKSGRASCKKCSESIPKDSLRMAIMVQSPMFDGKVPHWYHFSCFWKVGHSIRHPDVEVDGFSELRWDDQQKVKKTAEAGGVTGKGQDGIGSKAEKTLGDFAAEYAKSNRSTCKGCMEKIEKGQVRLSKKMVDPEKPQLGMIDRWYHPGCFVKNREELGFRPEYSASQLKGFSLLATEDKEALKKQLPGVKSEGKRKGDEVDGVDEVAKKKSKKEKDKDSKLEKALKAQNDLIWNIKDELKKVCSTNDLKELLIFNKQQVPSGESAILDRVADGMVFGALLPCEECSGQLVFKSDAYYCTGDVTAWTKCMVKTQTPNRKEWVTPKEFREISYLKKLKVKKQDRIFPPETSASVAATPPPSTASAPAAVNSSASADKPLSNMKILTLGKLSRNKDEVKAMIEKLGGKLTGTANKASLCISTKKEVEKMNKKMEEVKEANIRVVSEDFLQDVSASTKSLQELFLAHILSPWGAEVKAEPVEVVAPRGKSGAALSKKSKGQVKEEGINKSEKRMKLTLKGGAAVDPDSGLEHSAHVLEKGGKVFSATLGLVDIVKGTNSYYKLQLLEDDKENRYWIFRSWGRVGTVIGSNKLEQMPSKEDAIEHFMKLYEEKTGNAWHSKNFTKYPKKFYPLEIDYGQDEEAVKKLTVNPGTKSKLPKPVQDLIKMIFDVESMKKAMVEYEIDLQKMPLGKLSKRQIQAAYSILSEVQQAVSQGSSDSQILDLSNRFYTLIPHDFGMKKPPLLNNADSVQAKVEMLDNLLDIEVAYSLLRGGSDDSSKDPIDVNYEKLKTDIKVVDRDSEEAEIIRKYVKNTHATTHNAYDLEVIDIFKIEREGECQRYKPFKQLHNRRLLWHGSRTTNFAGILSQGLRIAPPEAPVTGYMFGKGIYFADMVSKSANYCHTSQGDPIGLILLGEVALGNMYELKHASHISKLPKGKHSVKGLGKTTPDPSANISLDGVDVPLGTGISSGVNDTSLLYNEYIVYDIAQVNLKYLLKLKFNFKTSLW

inhibition [1]	inhibition [2]	inhibition [3]	Compound
< 25%	< 25%	< 25%	CNC(=O)[C@H](CNC(=O)CCc1nc2ccccc2[nH]c1=O)NC(=O)c1ccc2c(c1)CCCC2=O
> 50%	> 50%	> 50%	CC1(CNC(=O)COc2cccc3c2CCCC3=O)CCN(C(=O)CCc2nc3ccccc3[nH]c2=O)CC1
